What all share (format): biochemical
Assay [1] addresses T1, HCPTP-A (Homo sapiens, UniProt P24666).
T1 sequence (P24666 1-158): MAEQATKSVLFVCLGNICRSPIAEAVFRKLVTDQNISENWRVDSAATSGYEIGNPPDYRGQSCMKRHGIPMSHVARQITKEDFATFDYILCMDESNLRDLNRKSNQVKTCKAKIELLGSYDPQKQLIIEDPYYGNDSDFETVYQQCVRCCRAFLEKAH
Description: pNPP phosphatase inhibition assay, HCPTP-A.

Assay [2] has as its target T2, HCPTP (Homo sapiens, UniProt P24666).
T2 sequence (P24666 2-158): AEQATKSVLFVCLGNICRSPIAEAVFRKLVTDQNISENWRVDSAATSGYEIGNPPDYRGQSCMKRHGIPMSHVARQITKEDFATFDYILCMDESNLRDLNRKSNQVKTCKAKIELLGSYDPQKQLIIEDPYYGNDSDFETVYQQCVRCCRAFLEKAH
In words: pNPP single concentration screen, isoform not specified. The settings on record: pH 5, read-out: elevation of the activity of HCPTP.

The target of assay [3] is T3, HCPTP-B (Homo sapiens, UniProt P24666).
T3 sequence (P24666 1-158 isoform P24666-2): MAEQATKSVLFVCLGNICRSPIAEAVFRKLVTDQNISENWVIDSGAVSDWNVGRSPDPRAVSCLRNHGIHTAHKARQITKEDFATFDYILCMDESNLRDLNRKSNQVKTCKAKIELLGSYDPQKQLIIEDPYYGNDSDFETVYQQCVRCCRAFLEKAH
Description: pNPP phosphatase inhibition assay, HCPTP-B. The settings on record: for inhibition at 100 µM: pH 5, read-out: inhibition of HCPTP-B activity.

For assay [4], the target named is T4, HCPTP (Homo sapiens, UniProt P24666).
T4 sequence (P24666 1-158): T1 sequence (P24666 1-158)
Description: single concentration screen repeated with 0.01% Triton X-100. The settings on record: 0.01% Triton X-100 and reducing agents.

Where [5] appears, read: pH 7, read-out: reduction of the activity of HCPTP-A, 100 μM compound, pH 7.
The mark [6] stands for this setting: IC50 HCPTP-A pH 5 (dash class), pH 5 (Table II), dash entries.
Where [7] appears, read: read-out: IC50 HCPTP-A pH 7, pH 7 (Table II).
Setting [8] is: pH 5, read-out: inhibition of HCPTP-A activity, 100 μM compound, pH 5.
Setting [9] is: IC50 HCPTP-A pH 5, pH 5 (Table II).
[10] abbreviates: IC50 HCPTP-A, pH 5 (Table I), pNPP substrate, 25 °C.
The mark [11] stands for this setting: pH 5, read-out: inhibition of HCPTP-A activity.
The mark [12] stands for this setting: pH 7, read-out: reduction of the activity of HCPTP-A.
Where [13] appears, read: IC50 HCPTP-B, pH 5 (Table I), pNPP substrate, 25 °C.

Read-outs that look alike come from different tables or passages of the source.

For the compound `Nc1cncc(Nc2ccc(S(N)(=O)=O)cc2)n1` [Compound 135784], the inhibition at 100 µM in assay [1] (setting [5]) is at least 10%.

As for `CC12CC(=O)C3C(CCC4=CC(=O)CCC43C)C1CC=C2CC(=O)O` (stereo not shown) [Compound 86008], the inhibition at 100 µM in assay [1] (setting [5]) was at least 10%.

In the case of `NC(Cc1c[nH]c2ccc([N+](=O)[O-])cc12)C(=O)O` (stereo not shown) [Compound 58612], the inhibition at 100 µM in assay [1] (setting [5]) was at least 10%.

For `NC(Cc1cc(Br)c(O)c(Br)c1)C(=O)O` (stereo not shown) [Compound 210786], the results for the IC50 in assay [1] (setting [6]) and in assay [1] (setting [7]) were over 100 µM and 4.6 µM, respectively. The activation at 100 µM in assay [2] is at least 10%.

Turning to `NC(Cc1ccc2oc3cc(=O)c4ccccc4c-3nc2c1)C(=O)O` (stereo not shown) [Compound 643735], the inhibition at 100 µM in assay [1] (setting [8]) and in assay [3] was at least 10% each time.

In the case of `CC12CCC(=O)C=C1CCC1C2CCC2(C)C(C(=O)Cn3cnc4c(=S)nc[nH]c43)CCC12` (stereo not shown) [Compound 114792], the inhibition at 100 µM in assay [1] (setting [8]) and in assay [3] was at least 10% throughout.

For `NC(Cc1ccccc1)P(=O)(O)O` (stereo not shown) [Compound 30080], the half-inhibitory concentration (IC50) in assay [1] (setting [9]) was 223 µM; in assay [1] (IC50 HCPTP-A pH 7 (dash class), pH 7 (Table II), dash entries) it was over 100 µM; in assay [1] (setting [10]) it was 223 µM; in assay [3] (setting [13]) it was 139 µM. For the same compound, the inhibition at 100 µM in assay [1] (setting [11]), in assay [1] (setting [12]) and in assay [3] was at least 10% in each case.

As for `C[C@]12CC[C@@H]3c4ccc(OP(=O)(O)O)cc4CC[C@H]3[C@@H]1CCC2=O` [Compound 18320], the inhibition at 100 µM in assay [1] (setting [5]) was at least 10%.

Consider `O=S(=O)(O)c1ccc2c(/N=N/c3c(O)ccc4ccccc34)cccc2c1` [Compound 45576], for which the IC50 in assay [1] (setting [9]) turned out to be 5.5 µM; in assay [1] (setting [10]), 5.5 µM; in assay [3] (setting [13]), 3.9 µM. Besides, the inhibition at 100 µM in assay [1] (setting [8]) and in assay [3] was at least 10% each time. Further, the “level of inhibition in the presence of detergent” value (“level of inhibition” for short) in assay [4] is “maintained an approximately constant level of inhibition”.

In the case of `Nc1nc(-c2ccc3ccccc3c2)cc(-c2cc(-c3ccc4ccccc4c3)nc(N)n2)n1` [Compound 371878], the inhibition at 100 µM in assay [1] (setting [5]) is at least 10%.

On to `O=C(O)/C(Cc1ccnc2ccccc12)=N/O` [Compound 85359], for which the IC50 in assay [1] (setting [6]) was over 100 µM; in assay [1] (setting [7]) it was 72 µM. In addition, the inhibition at 100 µM in assay [1] (setting [8]) and in assay [3] was at least 10% each time.

`O=C(O)C1CSC2(CCN(c3ccccc3)CC2)N1` (stereo not shown) [Compound 319095]: the IC50 in assay [1] (setting [6]) was over 100 µM; in assay [1] (setting [7]) it was 4 µM. Moreover, the “level of inhibition” value in assay [4] was “maintained an approximately constant level of inhibition”.

For the compound `N=C(N)NC(=N)Nc1ccc(S(=O)(=O)O)cc1` [Compound 17580], the inhibition at 100 µM in assay [1] (setting [5]) was at least 10%.

For `C[C@]12CC[C@@H]3c4ccc(O)cc4CC[C@H]3[C@@H]1C/C(=N\O)[C@@H]2O` [Compound 112737], the inhibition at 100 µM in assay [1] (setting [5]) is at least 10%.

`Oc1cc(O)c2c(c1)OC(c1ccc(O)c(O)c1)C(O)C2c1c(O)cc(O)c2c1OC(c1ccc(O)c(O)c1)C(O)C2` (stereo not shown) [Compound 143099]: in assay [2], the activation at 100 µM is at least 10%.

Regarding `NC(Cc1c[nH]c2cc([N+](=O)[O-])ccc12)C(=O)O` (stereo not shown) [Compound 65763], the results for the concentration for half-maximal inhibition (IC50) in assay [1] (setting [6]) and in assay [1] (setting [7]) were over 100 µM and 51 µM, respectively. Besides, the activation at 100 µM in assay [2] is at least 10%.

With `CC[C@H]1CN2CCc3cc(OC)c(OC)cc3C2C[C@@H]1C[C@@H]1NCCc2c1[nH]c1ccc(O)cc21` (stereo partly shown) [Compound 131547], the inhibition at 100 µM in assay [1] (setting [12]) was at least 10%.

Turning to `CC1OC(OC2C(O)C(O)C(O)C(O)C2O)C(N)CC1NC(=N)C(=O)O` (stereo not shown) [Compound 100858], the inhibition at 100 µM in assay [1] (setting [5]) is at least 10%.

Take `NC(c1c[nH]c2ccccc12)P(=O)(O)O` (stereo not shown) [Compound 669581]: the inhibition at 100 µM in assay [1] (setting [5]) is at least 10%.

On to `CC1CN(CC(N)C(=O)O)C(=O)NC1=O` (stereo not shown) [Compound 151831], for which the inhibition at 100 µM in assay [1] (setting [5]) was at least 10%.

For `O=C(O)CC1NCc2cc3ccccc3nc21` (stereo not shown) [Compound 141566], the IC50 was over 100 µM in assay [1] (setting [6]) and 4.8 µM in assay [1] (IC50 HCPTP-A pH 7, pH 7 (Table II)). For the same compound, the inhibition at 100 µM in assay [1] (setting [8]) and in assay [3] was at least 10% throughout.

Take `C[S+](=N)([O-])CCP(=O)(O)O` (stereo not shown) [Compound 359098]: the inhibition at 100 µM in assay [1] (setting [12]) is at least 10%.

Consider `O=C1C2=C(CC=CC2)C(=O)c2c(Nc3ccc(S(=O)(=O)O)cc3)ccc(Nc3ccccc3)c21` [Compound 128437], for which the IC50 in assay [1] (setting [9]) came to 5.5 µM; in assay [1] (setting [10]) it was 5.5 µM; in assay [1] (setting [7]), 3.6 µM; in assay [3] (setting [13]) it was 4.5 µM. For the same compound, the inhibition at 100 µM in assay [1] (setting [8]) and in assay [3] was at least 10% throughout. For the same compound, the “level of inhibition” value in assay [4] is “maintained an approximately constant level of inhibition”.

As to `NC(c1ccccc1)P(=O)(O)O` (stereo not shown) [Compound 133811], the inhibition at 100 µM in assay [1] (setting [8]) and in assay [3] was at least 10% each time.

As for `Cc1ncc(OP(=O)(O)O)c(C)c1O` [Compound 29870], the inhibition at 100 µM in assay [1] (setting [8]) and in assay [3] was at least 10% each time.

Turning to `Cn1c(=O)c2[nH]c(CCC(=O)O)nc2n(C)c1=O` [Compound 36534], in assay [1] (setting [5]), the inhibition at 100 µM is at least 10%.

On to `Nc1nc(N)c(N=Nc2ccc([As](=O)(O)O)c(O)c2)c(N)n1` [Compound 117281], for which the inhibition at 100 µM in assay [1] (setting [12]) is at least 10%.

For `CC(=O)Nc1ccc(-c2ccc3[nH]c(=O)cc(C)c3c2)cc1` [Compound 109816], the inhibition at 100 µM in assay [1] (setting [5]) is at least 10%. Further, in assay [2], the activation at 100 µM was at least 10%.

In the case of `CCc1ccc(CCC(=O)O)nc1` [Compound 35989], in assay [1] (100 μM compound, pH 7), the “reduction of the activity of HCPTP-A” value was “at least 10%”.

With `[O]=[V]([OH])([OH])[OH]` [orthovanadate, reference compound], the IC50 in assay [1] (read-out: IC50 HCPTP-A, general phosphatase inhibitor, pH not stated) is 11 µM; in assay [3] (read-out: IC50 HCPTP-B, general phosphatase inhibitor, pH not stated), 61 µM.

With `NC1CCCCC1P(=O)(O)O` (stereo not shown) [Compound 320308], the inhibition at 100 µM in assay [1] (setting [11]) and in assay [3] was at least 10% each time.

For the compound `N=C(Cc1ccccc1)NCC(=O)O` [Compound 27895], the inhibition at 100 µM in assay [1] (setting [8]), in assay [1] (setting [5]) and in assay [3] was at least 10% throughout.

In general, IC50 refers to the concentration at which inhibition is half-maximal.

For the origin of these results see publication PMC6031871 (Bioorganic & medicinal chemistry, 2010).
